Literature values, collected in patent US9839630B2, “Method of preparing (+)-1,4-dihydro-7-[(3S,4S)-3-methoxy-4-(methylamino)-1-pyrrolidinyl]-4-oxo-1-(2-thiazolyl)-1,8-naphthyridine-3-carboxylic acid” (Sunesis Pharmaceuticals, Inc., priority 2008, dated 2017).

Assays:
[1] = data of WO 2007/146335
[2] = test system: acute myeloid leukemia; details: human cancer patients, clinical trials
[3] = test system: various cancer cell lines; details: literature
[4] = test system: xenografts; details: literature
[5] = test system: ovarian cancer; details: human cancer patients, clinical trials

SMILES	activity in a cytotoxicity assay [1]	clinical activity against acute myeloid leukemia [2]	preclinical activity against various cancer cell lines [3]	preclinical activity against xenografts [4]	clinical activity against ovarian cancer [5]
CO[C@H]1CN(c2ccc3c(=O)c(C(=O)O)cn(-c4nccs4)c3n2)C[C@@H]1N [N-desmethyl compound, (+)-1,4-dihydro-7-[(3S,4S)-3-methoxy-4-amino-1-pyrrolidinyl]-4-oxo-1-(2-thiazolyl)-1,8-naphthyridine-3-carboxylic acid]	active				
CN[C@H]1CN(c2ccc3c(=O)c(C(=O)O)cn(-c4nccs4)c3n2)C[C@@H]1OC [SNS-595, (+)-1,4-dihydro-7-[(3S,4S)-3-methoxy-4-(methylamino)-1-pyrrolidinyl]-4-oxo-1-(2-thiazolyl)-1,8-naphthyridine-3-carboxylic acid]		clinical activity	preclinical activity	preclinical activity	clinical activity
